Consider 17 compounds from patent US20170112896A1, “SMALL MOLECULE RAC OR RHO INHIBITORS” (Ohio State Innovation Foundation, priority 2014, published 2017).

Read-outs that look alike come from different tables or passages of the source. Square brackets hold non-standard residues; d marks the D form. Side chains are listed from the residue outwards. Peptide text beside a SMILES is read from it. * marks the point of attachment. His(τ-Bzl) = N[C@@H](Cc1cn(Cc2ccccc2)cn1)C(=O)O; Phe(3,4-F2) = N[C@@H](Cc1ccc(F)c(F)c1)C(=O)O; Phe(4-F) = N[C@@H](Cc1ccc(F)cc1)C(=O)O; 2Nal = N[C@@H](Cc1ccc2ccccc2c1)C(=O)O; d2Nal = N[C@H](Cc1ccc2ccccc2c1)C(=O)O; Tle = CC(C)(C)[C@H](N)C(=O)O; dNle = CCCC[C@@H](N)C(=O)O; Nle = CCCC[C@H](N)C(=O)O; X4 = O=C(c1ccc(Cl)nc1)*; Dap = NC[C@H](N)C(=O)O

The subject of one experiment is H1299 lung cancer cells. It is filed as cell-based. Conditions: for IC50: 72 h; for anti-proliferative activity against lung cancer cells (in words): MTT assay. Here is the method: MTT assays (Mosmann, T. (1983) J. Immunol. Methods 65:55) were performed with H1299 lung cancer cells. One hundred μL of H1299 cells (0.5×10^5 cells/mL) were seeded in each well of a 96-well culture plate and allowed to grow overnight in Advanced RPMI medium supplemented with 10% fetal bovine serum (FBS) and 1% penicillin-streptomycin. Varying concentrations of cyclic peptide (0-25 μM) were added to the each well and the cells were incubated at 37° C. with 5% CO2 for 72 hours. Ten μL of a MTT stock solution (Roche) was added into each well. The plate was incubated at 37° C. for 4 h. Then 100 μL of SDS-HCl solubilizing buffer was added into each well, and the resulting solution was mixed thoroughly. The plate was incubated at 37° C. overnight. The absorbance of the formazan product was measured at 570 nm using a Molecular Devices Spectramax M5 plate reader. Each experiment was performed in triplicates and the cells without any peptide added were treated as control.
For orientation: Tetrazolium dyes change colour on reduction, which living cells bring about.

The target of experiment [1] is T1, Ras(G12V)-Raf RBD interaction (Homo sapiens, UniProt P01116, G12V).
T1 construct: The G12V mutant K-Ras (amino acids 1-185) was recombinantly fused to glutathione 5-transferase (GST) at its N-terminus; GST (N, cleaved yes); made in house; host or cells: Escherichia coli BL21
Briefly: HTRF assay, inhibition of Ras-Raf RBD interaction. Type of experiment: binding. Conditions: for IC50: read-out: HTRF IC50. On the technique in general: In TR-FRET formats the signal depends on donor and acceptor labels being close together.
Experimental: Recombinant HA-tagged K-Ras (no GST, 50 nM), GST-Raf RBD (50 nM each), a monoclonal anti-HA antibody labeled with acceptor d2 (2 μg/mL), a monoclonal anti-GST antibody labeled with donor Tb (0.25 μg/mL) (Cisbio), and increasing concentrations of cyclic peptide (0-20 μM) were mixed in PBS (total volume of 20 μL) in a 384-well plate. The plate was incubated overnight at 4° C. and the HTRF signal was measured on a Molecular Devices Spectramax M5 or a Tecan infinite M1000 Pro plate reader. The data were analyzed by Prism 6.0 from Graphpad Software, Inc. (La Jolla, Calif.) and IC50 values were obtained by fitting the data to dose-response-inhibition curve.

Setting [2] is: inhibition of Ras-Raf interaction, unlabeled peptide.

T1 sequence (P01116 1-185 isoform P01116-2 G12V): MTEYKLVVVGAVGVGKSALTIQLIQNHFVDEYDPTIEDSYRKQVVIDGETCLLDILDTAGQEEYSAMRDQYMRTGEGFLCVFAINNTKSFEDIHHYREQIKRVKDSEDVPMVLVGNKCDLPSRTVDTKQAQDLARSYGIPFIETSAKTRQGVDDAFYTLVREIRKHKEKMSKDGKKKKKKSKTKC

Regarding `CCCC[C@H]1NC(=O)[C@H](Cc2ccc(F)cc2)NC(=O)[C@H](CCCNC(=N)N)NC(=O)[C@@H](Cc2ccc3ccccc3c2)NC(=O)[C@H](CCCNC(=N)N)NC(=O)[C@H](CCCNC(=N)N)NC(=O)[C@H](CCC(=O)N[C@@H](CCCCN)C(N)=O)NC(=O)[C@@H](C)NC(=O)[C@H]([C@@H](C)O)NC(=O)[C@H](Cc2c[nH]c3ccccc23)NC(=O)[C@H](CCC(N)=O)NC1=O` [Cyclorasin 9A1] (cyclo(RR[d2Nal]R[Phe(4-F)][dNle]QWT[dA]E([Lys-NH2]))), it took 13 ± 2 µM to reach half-maximal inhibition with H1299 lung cancer cells (IC50).
Regarding `CCCC[C@H](NC(=O)CC[C@@H]1NC(=O)[C@@H](C)NC(=O)[C@H]([C@@H](C)O)NC(=O)[C@H](Cc2c[nH]c3ccccc23)NC(=O)[C@H](CCC(N)=O)NC(=O)[C@@H](CCCC)NC(=O)[C@H](Cc2ccc(F)cc2)NC(=O)[C@H](CCCNC(=N)N)NC(=O)[C@@H](Cc2ccc3ccccc3c2)NC(=O)[C@H](CCCNC(=N)N)NC(=O)[C@H](CCCNC(=N)N)NC1=O)C(N)=O` [Cyclorasin 9A4] (cyclo(RR[d2Nal]R[Phe(4-F)][dNle]QWT[dA]E([Nle-NH2]))), the IC50 in experiment [1] (setting [2]) is 0.5 ± 0.1 µM.
In the experiment on H1299 lung cancer cells, `CCCC[C@H]1NC(=O)[C@H](Cc2ccc(F)cc2)NC(=O)[C@H](CCCNC(=N)N)NC(=O)[C@@H](Cc2ccc3ccccc3c2)NC(=O)[C@H](CCCNC(=N)N)NC(=O)[C@H](CCCNC(=N)N)NC(=O)[C@H](CCCNC(=N)N)NC(=O)[C@@H](C)NC(=O)[C@H]([C@@H](C)O)NC(=O)[C@H](Cc2cn(Cc3ccccc3)cn2)NC(=O)[C@H](CCC(N)=O)NC1=O` [Cyclorasin 9A7] (cyclo([Phe(4-F)][dNle]Q[His(τ-Bzl)]T[dA]RRR[d2Nal]R)) came in with an IC50 of 10 ± 1 µM.
For `CC(C)C[C@H]1NC(=O)[C@H](Cc2ccc(F)cc2)NC(=O)[C@H](CCCNC(=N)N)NC(=O)[C@@H](Cc2ccc3ccccc3c2)NC(=O)[C@H](CCCNC(=N)N)NC(=O)[C@H](CCCNC(=N)N)NC(=O)[C@@H](CCCNC(=N)N)NC(=O)[C@@H](C)NC(=O)[C@H]([C@@H](C)O)NC(=O)[C@H](Cc2c[nH]c3ccccc23)NC(=O)[C@H](CCC(N)=O)NC1=O` [Cyclorasin 9A10] (cyclo(WT[dA][dR]RR[d2Nal]R[Phe(4-F)][dL]Q)), the IC50 with H1299 lung cancer cells was determined as 10 ± 3 µM.
On the same count and under the same terms, as for `CCCC[C@H]1NC(=O)[C@H](Cc2ccccc2)NC(=O)[C@H](CCCNC(=N)N)NC(=O)[C@@H](Cc2ccc3ccccc3c2)NC(=O)[C@H](CCCNC(=N)N)NC(=O)[C@H](CCCNC(=N)N)NC(=O)[C@@H](CCCNC(=N)N)NC(=O)[C@@H](C)NC(=O)[C@H]([C@@H](C)O)NC(=O)[C@H](Cc2c[nH]c3ccccc23)NC(=O)[C@H](CCC(N)=O)NC1=O` [Cyclorasin 9A12], the figure is 9.6 ± 1.3 µM.
Take `CCCC[C@H]1NC(=O)[C@H](Cc2ccc(O)cc2)NC(=O)[C@H](CCCNC(=N)N)NC(=O)[C@@H](Cc2ccc3ccccc3c2)NC(=O)[C@H](CCCNC(=N)N)NC(=O)[C@H](CCCNC(=N)N)NC(=O)[C@@H](CCCNC(=N)N)NC(=O)[C@@H](C)NC(=O)[C@H]([C@@H](C)O)NC(=O)[C@H](Cc2c[nH]c3ccccc23)NC(=O)[C@H](CCC(N)=O)NC1=O` [Cyclorasin 9A13] (cyclo(QWT[dA][dR]RR[d2Nal]RY[dNle])): in experiment [1] (setting [2]), the IC50 was > 20 µM.
`CCCC[C@H]1NC(=O)[C@H](Cc2ccc(F)cc2)NC(=O)[C@H](CCCNC(=N)N)NC(=O)[C@@H](Cc2ccc3ccccc3c2)NC(=O)[C@H](CCCNC(=N)N)NC(=O)[C@H](CCCNC(=N)N)NC(=O)[C@@H](CCCNC(=N)N)NC(=O)[C@@H](C(C)C)NC(=O)[C@H]([C@@H](C)O)NC(=O)[C@H](Cc2c[nH]c3ccccc23)NC(=O)[C@H](CCC(N)=O)NC1=O` [Cyclorasin 9A14] (cyclo(WT[dV][dR]RR[d2Nal]R[Phe(4-F)][dNle]Q)) displayed an IC50 in the experiment on H1299 lung cancer cells of 5.4 ± 2.4 µM. Also, the “increase of Ras binding affinity by substitution” value in experiment [1] (relative to parent 9A5/9A6) is recorded as 2 fold.
The compound `CCCC[C@H]1NC(=O)[C@H](Cc2ccc(F)cc2)NC(=O)[C@H](CCCNC(=N)N)NC(=O)[C@@H](Cc2ccc3ccccc3c2)NC(=O)[C@H](CCCNC(=N)N)NC(=O)[C@H](CCCNC(=N)N)NC(=O)[C@@H](CCCNC(=N)N)NC(=O)[C@@H](CC(C)C)NC(=O)[C@H]([C@@H](C)O)NC(=O)[C@H](Cc2c[nH]c3ccccc23)NC(=O)[C@H](CCC(N)=O)NC1=O` [Cyclorasin 9A15] (cyclo(WT[dL][dR]RR[d2Nal]R[Phe(4-F)][dNle]Q)) displayed an IC50 in the experiment with H1299 lung cancer cells of 12 ± 1 µM.
With `CCCC[C@H]1NC(=O)[C@H](CNC(=O)c2ccc(Cl)nc2)NC(=O)[C@H](CCCNC(=N)N)NC(=O)[C@@H](Cc2ccc3ccccc3c2)NC(=O)[C@H](CCCNC(=N)N)NC(=O)[C@H](CCCNC(=N)N)NC(=O)[C@H](CCCNC(=N)N)NC(=O)[C@@H](C)NC(=O)[C@H](C(C)(C)C)NC(=O)[C@H](Cc2c[nH]c3ccccc23)NC(=O)[C@H](CCC(N)=O)NC1=O` [Cyclorasin 9A44b] (cyclo(W[Tle][dA]RRR[d2Nal]R[Dap](X4)[dNle]Q)), the IC50 in experiment [1] was determined as 0.52 ± 0.16 µM.
As to `CCCC[C@H]1NC(=O)[C@H](Cc2ccc(F)cc2)NC(=O)[C@H](CCCNC(=N)N)NC(=O)[C@@H](Cc2ccc3ccccc3c2)NC(=O)[C@H](CCCNC(=N)N)NC(=O)[C@H](CCCNC(=N)N)NC(=O)[C@H](CCCNC(=N)N)NC(=O)[C@@H](C(C)C)NC(=O)[C@H](C(C)(C)C)NC(=O)[C@H](Cc2c[nH]c3ccccc23)NC(=O)[C@H](CCC(N)=O)NC1=O` [Cyclorasin 9A48] (cyclo(W[Tle][dV]RRR[d2Nal]R[Phe(4-F)][dNle]Q)), the IC50 in the experiment with H1299 lung cancer cells came out at 11 ± 3 µM.
Same read-out and setting: the result for `CCCC[C@H]1NC(=O)[C@H](Cc2ccc(F)cc2)NC(=O)[C@H](CCCNC(=N)N)NC(=O)[C@@H](Cc2ccc3ccccc3c2)NC(=O)[C@H](CCCNC(=N)N)NC(=O)[C@H](CCCNC(=N)N)NC(=O)[C@H](CCCNC(=N)N)NC(=O)[C@@H](C)NC(=O)[C@H]([C@@H](C)O)NC(=O)[C@H](Cc2ccc3ccccc3c2)NC(=O)[C@H](CCC(N)=O)NC1=O` [Cyclorasin 9A49] (cyclo([2Nal]T[dA]RRR[d2Nal]R[Phe(4-F)][dNle]Q)) reads 6.3 ± 0.4 µM.
`CC(C)[C@H]1NC(=O)[C@H](C(C)(C)C)NC(=O)[C@H](Cc2c[nH]c3ccccc23)NC(=O)[C@H](CCC(N)=O)NC(=O)[C@@H](CCCNC(=N)N)NC(=O)[C@H](Cc2ccc(F)c(F)c2)NC(=O)[C@H](CCCNC(=N)N)NC(=O)[C@@H](Cc2ccc3ccccc3c2)NC(=O)[C@H](CCCNC(=N)N)NC(=O)[C@H](CCCNC(=N)N)NC(=O)[C@H](CCCNC(=N)N)NC1=O` [Cyclorasin 9A50] (cyclo([Phe(3,4-F2)][dR]QW[Tle][dV]RRR[d2Nal]R)): in experiment [1] (setting [2]), the IC50 was > 1 µM.
On to `CCCC[C@H]1NC(=O)[C@H](Cc2ccc(F)c(F)c2)NC(=O)[C@H](CCCNC(=N)N)NC(=O)[C@@H](Cc2ccc3ccccc3c2)NC(=O)[C@H](CCCNC(=N)N)NC(=O)[C@H](CCCNC(=N)N)NC(=O)[C@@H](CCCNC(=N)N)NC(=O)[C@@H](C(C)C)NC(=O)[C@H](C(C)(C)C)NC(=O)[C@H](Cc2c[nH]c3ccccc23)NC(=O)[C@H](CCC(N)=O)NC1=O` [Cyclorasin 9A51] (cyclo(W[Tle][dV][dR]RR[d2Nal]R[Phe(3,4-F2)][dNle]Q)), for which, in the experiment on H1299 lung cancer cells, the IC50 turned out to be 6.7 ± 0.8 µM and the “anti-proliferative activity against lung cancer cells (in words)” value is “less effective”.
For `C[C@H]1NC(=O)[C@H]([C@@H](C)O)NC(=O)[C@H](Cc2c[nH]c3ccccc23)NC(=O)[C@H](CCC(N)=O)NC(=O)[C@@H](CCCNC(=N)N)NC(=O)[C@H](Cc2ccc(F)c(F)c2)NC(=O)[C@H](CCCNC(=N)N)NC(=O)[C@@H](Cc2ccc3ccccc3c2)NC(=O)[C@H](CCCNC(=N)N)NC(=O)[C@H](CCCNC(=N)N)NC(=O)[C@H](CCCNC(=N)N)NC1=O` [Cyclorasin 9A52] (cyclo([Phe(3,4-F2)][dR]QWT[dA]RRR[d2Nal]R)), the IC50 in experiment [1] (setting [2]) is > 1 µM.
Compound `CCCC[C@H]1NC(=O)[C@H](Cc2ccc(F)cc2)NC(=O)[C@H](CCCNC(=N)N)NC(=O)[C@@H](Cc2ccc3ccccc3c2)NC(=O)[C@H](CCCNC(=N)N)NC(=O)[C@H](CCCNC(=N)N)NC(=O)[C@@H](CCCNC(=N)N)NC(=O)[C@@H](C(C)C)NC(=O)[C@H](C(C)(C)C)NC(=O)[C@H](Cc2c[nH]c3ccccc23)NC(=O)[C@H](CCC(N)=O)NC1=O` [Cyclorasin 9A53] (cyclo(W[Tle][dV][dR]RR[d2Nal]R[Phe(4-F)][dNle]Q)) displayed an IC50 in the experiment on H1299 lung cancer cells of 13 ± 1 µM.
As to `CCCC[C@H]1NC(=O)[C@H](Cc2ccc(F)c(F)c2)NC(=O)[C@H](CCCNC(=N)N)NC(=O)[C@@H](Cc2ccc3ccccc3c2)NC(=O)[C@H](CCCNC(=N)N)NC(=O)[C@H](CCCNC(=N)N)NC(=O)[C@H](CCCNC(=N)N)NC(=O)[C@@H](C(C)C)NC(=O)[C@H](C(C)(C)C)NC(=O)[C@H](Cc2c[nH]c3ccccc23)NC(=O)[C@H](CCC(N)=O)NC1=O` [Cyclorasin 9A54] (cyclo(W[Tle][dV]RRR[d2Nal]R[Phe(3,4-F2)][dNle]Q)), in the experiment on H1299 lung cancer cells, the IC50 came to 7.2 ± 0.4 µM and the “anti-proliferative activity against lung cancer cells (in words)” value was “less effective”.
In the case of `CCCC[C@H]1NC(=O)[C@H](Cc2ccc(F)cc2)NC(=O)[C@H](CCCNC(=N)N)NC(=O)[C@H](Cc2ccc3ccccc3c2)NC(=O)[C@H](CCCNC(=N)N)NC(=O)[C@H](CCCNC(=N)N)NC(=O)[C@H](CCCNC(=N)N)NC(=O)[C@@H](C)NC(=O)[C@H]([C@@H](C)O)NC(=O)[C@H](Cc2c[nH]c3ccccc23)NC(=O)[C@H](CCC(N)=O)NC1=O` [Cyclorasin 9A55] (cyclo(WT[dA]RRR[2Nal]R[Phe(4-F)][dNle]Q)), inhibition with H1299 lung cancer cells was half-maximal at 12 ± 1 µM (IC50).

The IC50 is the concentration needed to halve the response being measured.
